Laboratory results taken from PMC10803553 (Frontiers in Oncology, 2024).
Entries after “also recorded” stand apart in the source; their conditions may differ.

Key:
EML4-ALK (F1174S) V3a = biological target: T1, EML4-ALK (F1174S) V3a (Homo sapiens, UniProt Q9HC35+Q9UM73, F1174S); settings: NL20 cells, 0 nM to 1000 nM, pALK-Y1604 readout
T1 sequence (Q9HC35+Q9UM73 with tags, fused parts or gaps Q9UM73:F1174S): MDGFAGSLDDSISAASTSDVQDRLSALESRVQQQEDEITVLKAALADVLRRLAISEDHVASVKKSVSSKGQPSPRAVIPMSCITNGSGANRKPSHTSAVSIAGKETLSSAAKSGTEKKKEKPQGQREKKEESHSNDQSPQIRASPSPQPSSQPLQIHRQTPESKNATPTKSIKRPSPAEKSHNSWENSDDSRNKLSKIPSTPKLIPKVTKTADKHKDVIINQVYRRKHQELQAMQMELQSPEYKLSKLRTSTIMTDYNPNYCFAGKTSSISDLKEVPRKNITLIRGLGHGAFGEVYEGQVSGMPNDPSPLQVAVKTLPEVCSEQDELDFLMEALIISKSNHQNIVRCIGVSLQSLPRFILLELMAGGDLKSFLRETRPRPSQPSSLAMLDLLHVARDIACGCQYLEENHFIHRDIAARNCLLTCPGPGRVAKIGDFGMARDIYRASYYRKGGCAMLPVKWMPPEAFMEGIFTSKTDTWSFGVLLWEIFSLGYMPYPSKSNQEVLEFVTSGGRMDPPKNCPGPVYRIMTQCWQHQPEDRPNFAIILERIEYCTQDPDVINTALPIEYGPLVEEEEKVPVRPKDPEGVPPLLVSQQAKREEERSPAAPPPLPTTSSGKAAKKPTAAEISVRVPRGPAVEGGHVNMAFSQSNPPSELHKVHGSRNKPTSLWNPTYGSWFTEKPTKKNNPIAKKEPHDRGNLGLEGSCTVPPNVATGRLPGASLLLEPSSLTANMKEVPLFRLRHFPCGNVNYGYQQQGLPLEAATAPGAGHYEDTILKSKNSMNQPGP
Protocol: (§1) SK-N-AS cells were transfected with Lipofectamine 3000 (Invitrogen, Carlsbad. CA) following the manufacturer’s instruction. […] After 24-36 hours culture, cells were treated with serial dilutions of the indicated inhibitors for 2 hours.
Cells were washed with ice-cold PBS prior to harvest in lysis buffer [25 mM of Tris-Cl, pH7.5, 150 mM of NaCl, 1% (v/v) Triton X-100, 1 mM of DTT, and protease inhibitor cocktail]. Cell lysates were clarified by centrifugation at 14,000 rpm for 15 minutes at 4°C. Samples were boiled in 1x SDS sample buffer and analyzed by immunoblotting. Enhanced chemiluminescence (ECL) and fluorescence blot images were taken with LI-COR Odyssey FC instrument and Image Studio 5.2 software (Lincoln, NE). […] The intensity of different protein bands was quantified with Image Studio Lite 5.2 software (Lincoln, NE). Ratios were shown either directly or normalized. […] GraphPad Prism 6.0 was used to calculate IC50 values by fitting data to a log (inhibitor concentration) vs. normalized response (variable slope) equation.
We therefore tested the sensitivity of these EML4-ALK mutants to ALK inhibitors. […] Dose-dependent ALK activity responses were followed with anti-pALK-Y1604 as readout.
Dose-dependent ALK activity responses were followed employing anti-pALK-Y1604 as readout.

EML4-ALK F1174S NSCLC = settings: one NSCLC patient, after resistance to crizotinib; alectinib 6 months, ceritinib 3 months, brigatinib 1 month
EML4-ALK V1 mRNA = experiment: RT-PCR for EML4-ALK V1 mRNA after ALK inhibition in DFCI032 cells; assay type: cell-based, human; settings: 30 nM lorlatinib, 24 hours
Protocol: Reverse transcription was performed with the SuperScript IV First-Strand Synthesis System (Invitrogen, Carlsbad. CA) following the manufacturer’s protocol. PCR was performed with DreamTaq Hot Start Green PCR Master Mix (ThermoScientific, Waltham, MA). The PCR primers used for ALK were 5’-[…]-3’ and 5’-[…]-3’; and the primers for Actin were 5’-[…]-3’ and 5’-[…]-3’.
as §1

[1] = system: wildtype and F1174S mutant EML4-ALK V3a and EML4-ALK V3b; experiment: Dose-dependent pALK-Y1604 response to crizotinib or lorlatinib in NL20 cells, wildtype and F1174S mutant V3a/b (immunoblot, qualitative); assay type: cell-based, human; settings: 0 nM to 1000 nM, 2 hours

Row | Structure (SMILES) | sensitivity of EML4-ALK (F1174S) V3a to ALK inhibition relative to EML4-ALK V3a (qualitative) (EML4-ALK (F1174S) V3a) | clinical response to ALK TKI (EML4-ALK F1174S NSCLC) | ALK mRNA levels in response to treatment (EML4-ALK V1 mRNA) | inhibition of ALK-Y1604 phosphorylation (qualitative) [1]
1 | Cc1cc(Nc2ncc(Cl)c(Nc3ccccc3S(=O)(=O)C(C)C)n2)c(OC(C)C)cc1C1CCNCC1 [ceritinib] | more sensitive | no detectable response | – | –
2 | COc1cc(N2CCC(N3CCN(C)CC3)CC2)ccc1Nc1ncc(Cl)c(Nc2ccccc2P(C)(C)=O)n1 [brigatinib] | strongest effect; also recorded: more sensitive | no detectable response | – | –
3 | C[C@H]1Oc2cc(cnc2N)-c2c(nn(C)c2C#N)CN(C)C(=O)c2ccc(F)cc21 [lorlatinib] | – | – | decreased ALK mRNA levels | superior inhibition effect
